This test deals with T1, TET2 catalytic domain (TET2CD) (Homo sapiens, UniProt Q6N021, DEL1481-1843).
T1 construct: GST-TET2CD (1099–1936 Del-insert), expressed in E. coli; also GST tag free TET2CD
The experiment in a line: SPR (Biacore […]), GST-TET2CD captured by anti-GST on CM5 chip; supported by Kd […] on 5mC-DNA-captured TET2CD and 5hmC ELISA EC50 […]. The test is classed as binding. (In general: In SPR one partner is held on a chip, and binding of the other changes the refractive index at the surface.)

Experimental findings from publication PMC7477582, “Context dependent effects of ascorbic acid treatment in TET2 mutant myeloid neoplasia” (Communications Biology, 2020) are described below.

The term Kd denotes the equilibrium constant for the complex coming apart.

Take `O=C1O[C@H]([C@@H](O)CO)C(O)=C1O` [AA, Ascorbic acid]: the dissociation constant Kd was 9.1 ± 2.3 µM.
